Key:
Assay in all cases: relative viability (nuclei count vs DMSO), 5 days (fraction); higher = more cells survive
Doramapimod + Lapatinib = compound: Cc1ccc(-n2nc(C(C)(C)C)cc2NC(=O)Nc2ccc(OCCN3CCOCC3)c3ccccc23)cc1 [Doramapimod] + CS(=O)(=O)CCNCc1ccc(-c2ccc3ncnc(Nc4ccc(OCc5cccc(F)c5)c(Cl)c4)c3c2)o1 [Lapatinib] (partner 2 µM)
Procedure, shortened: (§1)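 Dosing by pin tool came one day after lung cancer cell lines were seeded in 1536-well plates, using either one drug or a fixed anchor-drug dose plus five library-drug doses (not always all listed) in √10 steps. After 5 days, nuclei were counted on 4× images. Relative viability is treated-well nuclei count divided by vehicle-well nuclei count, and values are medians of duplicate plates.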

IPA-3 + Phenformin = compound: C1=CC=C2C(=C1)C=CC(=C2SSC3=C(C=CC4=CC=CC=C43)O)O [IPA-3] + N=C(N)NC(=N)NCCc1ccccc1 [Phenformin] (partner 250 µM)
Procedure, shortened: as §1

RAF265 + Phenformin = compound: Cn1c(Nc2ccc(C(F)(F)F)cc2)nc2cc(Oc3ccnc(-c4ncc(C(F)(F)F)[nH]4)c3)ccc21 [RAF265] + N=C(N)NC(=N)NCCc1ccccc1 [Phenformin] (partner 250 µM)
Procedure, shortened: as §1

RAF265 + Olaparib = compound: Cn1c(Nc2ccc(C(F)(F)F)cc2)nc2cc(Oc3ccnc(-c4ncc(C(F)(F)F)[nH]4)c3)ccc21 [RAF265] + O=C(c1cc(Cc2n[nH]c(=O)c3ccccc23)ccc1F)N1CCN(C(=O)C2CC2)CC1 [Olaparib] (partner 8 µM)
Procedure, shortened: as §1

| Cell Line | relative viability (Doramapimod + Lapatinib; first compound 0.02 µM) | relative viability (Doramapimod + Lapatinib; first compound 0.06325 µM) | relative viability (Doramapimod + Lapatinib; first compound 0.2 µM) | relative viability (Doramapimod + Lapatinib; first compound 0.6325 µM) | relative viability (Doramapimod + Lapatinib; first compound 2 µM) | relative viability (IPA-3 + Phenformin; first compound 0.2 µM) | relative viability (IPA-3 + Phenformin; first compound 0.6325 µM) | relative viability (IPA-3 + Phenformin; first compound 2 µM) | relative viability (IPA-3 + Phenformin; first compound 6.325 µM) | relative viability (IPA-3 + Phenformin; first compound 20 µM) | relative viability (RAF265 + Phenformin; first compound 0.01 µM) | relative viability (RAF265 + Phenformin; first compound 0.03162 µM) | relative viability (RAF265 + Phenformin; first compound 0.1 µM) | relative viability (RAF265 + Phenformin; first compound 0.3162 µM) | relative viability (RAF265 + Phenformin; first compound 1 µM) | relative viability (RAF265 + Olaparib; first compound 0.01 µM) | relative viability (RAF265 + Olaparib; first compound 0.03162 µM) | relative viability (RAF265 + Olaparib; first compound 0.1 µM) | relative viability (RAF265 + Olaparib; first compound 0.3162 µM) | relative viability (RAF265 + Olaparib; first compound 1 µM) |
| --- | --- | --- | --- | --- | --- | --- | --- | --- | --- | --- | --- | --- | --- | --- | --- | --- | --- | --- | --- | --- |
| 201T | 1.05 | 1.11 | 0.955 | 1.11 | 0.971 | 0.452 | 0.454 | 0.484 | 0.461 | 0.469 | 0.392 | 0.422 | 0.453 | 0.434 | 0.38 | 0.839 | 0.804 | 0.887 | 0.824 | 0.828 |
| A549 | 0.827 | 0.989 | 0.932 | 1.24 | 0.895 | 0.197 | – | 0.142 | 0.189 | 0.298 | 0.148 | 0.123 | 0.201 | 0.0774 | 0.0726 | 0.41 | 0.367 | 0.404 | 0.0957 | 0.0721 |
| A-427 | 1.03 | 1.17 | 1.09 | – | 1.04 | 0.395 | 0.295 | 0.288 | 0.253 | 0.447 | 0.361 | 0.266 | 0.307 | 0.204 | 0.124 | 0.831 | 0.604 | 0.712 | 0.459 | 0.29 |
| ABC-1 | 1.03 | 1.15 | 1.17 | 1.54 | 1.35 | 0.258 | 0.247 | 0.236 | 0.258 | 0.235 | 0.21 | 0.223 | 0.228 | 0.187 | 0.21 | 0.919 | 0.649 | 0.952 | 1.07 | 0.791 |
| BEN | 0.728 | 0.687 | 0.746 | 0.475 | 0.717 | 0.268 | 0.291 | 0.243 | 0.243 | 0.388 | 0.276 | 0.267 | 0.274 | 0.263 | 0.239 | 1.04 | 1.09 | 1.16 | 1.19 | 0.846 |
| CAL-12T | 0.674 | 0.557 | 0.676 | 0.611 | 0.623 | 0.763 | 0.512 | 0.529 | 0.529 | 0.694 | 0.581 | 0.521 | 0.426 | 0.516 | 0.363 | 0.84 | 0.645 | 0.677 | 0.592 | 0.593 |
| Calu-6 | 1.06 | 1.13 | 1.17 | 1.19 | 0.985 | – | – | – | – | – | – | – | – | – | – | 0.6 | 0.591 | 0.528 | 0.442 | 0.255 |
| ChaGo-K-1 | – | – | – | – | – | 0.614 | 0.494 | 0.494 | 0.494 | 0.605 | 0.519 | 0.511 | 0.392 | 0.405 | 0.382 | 0.411 | 0.429 | 0.464 | 0.422 | 0.371 |

Source: the supplement of paper PMC10307832
